According to US9783488B2 (CHDI Foundation, Inc., priority 2013, dated 2017):

Legend:
[1] = target: human catalytic domain HDAC4 protein (amino acids 648-1032) (Homo sapiens (Human), UniProt P56524); experiment: Inhibition of HDAC4 catalytic domain enzymatic activity, fluorogenic substrate Boc-Lys(Tfa)-AMC; conditions: HDAC4 catalytic domain enzyme, read-out: Biochemical HDAC4 IC50
Text: Analysis of Inhibition of HDAC4 with Class IIa Histone Deacetylase (HDAC) Inhibitors
The potency of Class IIa Histone Deacetylase (HDAC) inhibitors is quantified by measuring the Histone Deacetylase 4 (HDAC4) catalytic domain enzymatic activity using the fluorogenic substrate, Boc-Lys(Tfa)-AMC. The substrate is deacetylated to Boc-Lys-AMC by HDAC4. Cleavage by trypsin results in the release of the fluorophore AMC from the deacetylated substrate. The fluorescence of the sample is directly related to the histone deacetylase activity in the sample.
Serially dilute HDAC inhibitor compounds. […] Stocks of 6 μl aliquots of the 10 mM compound in DMSO are prepared and stored at […]. From one stock aliquot of each compound to be tested and the reference compound, a 16-point serial dilution is prepared according to Table 1 using a 125 μl 16-channel Matrix multi-channel pipette (Matrix Technologies Ltd).
2 μl (200×) of each diluted solution and each control (full activity: 100% DMSO alone or full inhibition 1 mM) is stamped into V-bottomed polypropylene 384-well compound plates using either the Bravo (384-well head from Agilent) or 12.5 μl 16-channel Matrix multi-channel pipette (Matrix Technologies Ltd).
Prepare HDAC4 catalytic domain enzyme (0.2 μg/mL).
Prepare 5× ([…]) Boc-Lys(Tfa)-AMC Substrate. 5× (50 μM) substrate is prepared just prior to the addition to the assay. A 1 mM substrate stock is made by diluting a 100 mM Boc-Lys(Tfa)-AMC in DMSO solution 1:100 by adding it drop-wise to assay buffer (equilibrated to r.t.) while vortexing at slow speed to prevent precipitation. The 5× substrate is prepared by diluting the 1 mM substrate solution 1:20 by adding it drop-wise to assay buffer (equilibrated to r.t.) while vortexing at slow speed to prevent precipitation.
Prepare 3× (30 μM) Developer/Stop Solution.
Assay. 5 μl of each solution of 1:20 diluted compound from above is transferred to a clear bottomed, black, 384-well assay plate using the Bravo or the Janus (384-well MDT head from Perkin Elmer). Using a 16-channel Matrix multi-channel pipette, 35 μl of the working solution of HDAC4 catalytic domain enzyme (0.2 μg/mL in assay buffer) is transferred to the assay plate. […] The assay plate is then shaken for two minutes on an orbital shaker at 900 rpm (rotations per minute). Next the plate is incubated for 15 minutes at 37° C. The reaction is stopped by adding 25 μl of 3× (3 μM) developer/stop solution to the assay plates using either the Bravo, Janus or a 16-channel Matrix multi-channel pipette. Assay plates are then shaken for 5 minutes on an orbital shaker at 1200 rpm. Next, the assay plates are incubated at 37° C. for 1 hour in a tissue culture incubator.

[2] = tested on: cellular histone deacetylase enzymatic activity in Jurkat E6-1 cells; experiment: Inhibition of cellular HDAC activity in Jurkat E6-1 cells, fluorogenic substrate Boc-Lys(Tfa)-AMC; assay type: cell-based; conditions: Homo sapiens, read-out: Cell IC50
Text: Analysis of Inhibition of Cellular HDAC Activity with Class IIa Histone Deacetylase (HDAC) Inhibitors
The potency of Class IIa Histone Deacetylase (HDAC) inhibitors is quantified by measuring the cellular histone deacetylase enzymatic activity using the fluorogenic substrate, Boc-Lys(Tfa)-AMC. After penetration in Jurkat E6-1 cells, the substrate is deacetylated to Boc-Lys-AMC. After cell lysis and cleavage by trypsin, the fluorophore AMC is released from the deacetylated substrate only. The fluorescence of the sample is directly related to the histone deacetylase activity in the sample.
Jurkat E6.1 cell culture and plating. Jurkat E6.1 cells are cultured according to standard cell culture protocols in Jurkat E6.1 Growth Media (RPMI without phenol red, 10% FBS, 1 mM HEPES, and 1 mM Sodium Pyruvate). Jurkat E6.1 cells are counted using a Coulter Counter and resuspended in Jurkat E6.1 growth media at a concentration of 75,000 cells/35 μl. 35 μl or 75,000 cells is seeded into Greiner microtitre assay plates. The plates are then incubated at 37° C. and 5% CO2 while other assay components are being prepared.
Serially dilute HDAC inhibitor compounds. Serial dilutions of the HDAC inhibitors and control reference compound (1-(5-(3-((4-(1,3,4-oxadiazol-2-yl)phenoxy)methyl)-1,2,4-oxadiazol-5-yl)thiophen-2-yl)-2,2,2-trifluoroethanone) are made by first resuspending the lyophilized compound to a final concentration of 10 mM in […]. Stocks of 70 μl aliquots of the 10 mM compound in DMSO are prepared and stored at −20° C. From one stock aliquot of each compound to be tested and the reference compound, a 16-point serial dilution is prepared according to Table 1 using a 125 μl 16-channel Matrix multi-channel pipette.
2 μl (200×) of each diluted solution and each control (full activity: 100% DMSO alone or full inhibition 1 mM) is stamped into V-bottom polypropylene 384-well compound plates using either the Bravo, Janus, or 12.5 μl 16-channel Matrix multi-channel pipette. Each well with the 200× compound solution is diluted 1:20 by the addition of 38 μl Jurkat assay buffer+DMSO (9.5% DMSO, RPMI without phenol red, 0.09% FBS, 9 mM Hepes, and 0.9 mM Sodium Pyruvate equilibrated to r.t.)
Prepare 5× (500 μM) Boc-Lys(Tfa)-AMC substrate. 5× (500 μM) substrate is prepared just prior to the addition to the assay. The 5× substrate is prepared by diluting a 100 mM Boc-Lys(Tfa)-AMC in DMSO solution 1:200 by adding it drop-wise to Jurkat assay medium (RPMI without phenol red, 0.1% FBS, 10 mM Hepes, and 1 mM Sodium Pyruvate equilibrated to 37° C.) while vortexing at slow speed to prevent precipitation.
Prepare 3× Lysis Buffer. 10 mL of 3× lysis buffer is prepared with 8.8 mL of 3× stock lysis buffer (50 mM Tris-HCl, pH 8.0, 137 mM NaCl, 2.7 mM KCl, 1 mM MgCl2, 1% Nonidet P40 Substitute equilibrated to r.t.) and 1.2 mL of 3 mg/mL Trypsin equilibrated to r.t.
Assay. 5 μl of each solution of 1:20 diluted compound from above is transferred to the Greiner microtitre assay plates with 75,000 cells/well using the Bravo. Cells are then incubated for 2 hours at 37° C. and 5% CO2. The assay is then started by adding 10 μl of 5× (500 μM) substrate to the assay plate using either the Bravo or 16-channel Matrix multi-channel pipette. The cells are then incubated for 3 hours at 37° C. and 5% CO2. Next, 25 μl of 3× lysis buffer is added to each well using either the 125 μl 16 channel pipette or the Bravo. The assay plate is then incubated overnight (15-16 hours) at 37° C. and 5% CO2. The following day, the plates are shaken on an orbital shaker for 1 minute at 900 rpm. Finally the top read fluorescence (Excitation: 355 nm, Emission: 460 nm) is measured using PerkinElmer EnVision.

human catalytic domain HDAC4 protein (amino acids 648-1032), sequence (P56524 648-1032): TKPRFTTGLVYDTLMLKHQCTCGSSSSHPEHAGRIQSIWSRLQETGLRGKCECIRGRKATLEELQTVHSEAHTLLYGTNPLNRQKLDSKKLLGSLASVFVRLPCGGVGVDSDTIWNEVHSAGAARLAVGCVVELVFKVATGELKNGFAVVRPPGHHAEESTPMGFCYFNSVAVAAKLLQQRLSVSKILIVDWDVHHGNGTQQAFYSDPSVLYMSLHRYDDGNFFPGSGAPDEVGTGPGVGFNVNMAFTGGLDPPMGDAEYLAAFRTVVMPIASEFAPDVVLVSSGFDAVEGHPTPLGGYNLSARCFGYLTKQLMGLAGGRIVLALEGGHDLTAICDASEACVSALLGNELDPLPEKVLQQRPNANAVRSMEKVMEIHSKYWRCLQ

SMILES	IC50 [1]	IC50 [2]
COc1cccc(C2(C(=O)NO)CCCC2)c1C(F)(F)F [Example 33, N-Hydroxy-1-(3-methoxy-2-(trifluoromethyl)phenyl)cyclopentanecarboxamide]	> 50000 nM	> 50000 nM
Cc1c(F)cccc1[C@]1(C(=O)NO)CC[C@@H](c2ccc3cnn(C(F)F)c3c2)C1 (relative stereo) [Example 54, (1S,3R*)-3-(1-(difluoromethyl)-1H-indazol-6-yl)-1-(3-fluoro-2-methylphenyl)-N-hydroxycyclopentanecarboxamide]	72 nM	110 nM
Cc1c(F)cccc1[C@]1(C(=O)NO)CC[C@H](c2ccc3nc(C4CC4)sc3c2)C1 (relative stereo) [Example 77, (1 S,3S*)-3-(2-cyclopropylbenzo[d]thiazol-6-yl)-1-(3-fluoro-2-methylphenyl)-N-hydroxycyclopentanecarboxamide]	310 nM	420 nM
N#Cc1ccccc1C1(C(=O)NO)CCCC1 [Example 27, 1-(2-Cyanophenyl)-N-hydroxycyclopentanecarboxamide]	> 50000 nM	> 50000 nM
Cc1c(C2(C(=O)NO)CCCC2)ccc(F)c1F [Example 29, 1-(3,4-Difluoro-2-methylphenyl)-N-hydroxycyclopentanecarboxamide]	150 nM	1410 nM
O=C(NO)C1(c2c(F)cccc2Cl)CCCC1 [Example 22, 1-(2-Chloro-6-fluorophenyl)-N-hydroxycyclopentanecarboxamide]	2500 nM	15600 nM
O=C(NO)[C@@]1(c2ccccc2)CC[C@@H](c2cncc(F)c2)C1 [Example 41, (1S,3R)-3-(5-fluoropyridin-3-yl)-N-hydroxy-1-phenylcyclopentanecarboxamide]	1900 nM	13000 nM
Cc1c(F)cccc1[C@]1(C(=O)NO)CC[C@@H](c2ccc3nc(C4CC4)sc3c2)C1 (relative stereo) [Example 78, (1 S,3R*)-3-(2-cyclopropylbenzo[d]thiazol-6-yl)-1-(3-fluoro-2-methylphenyl)-N-hydroxycyclopentanecarboxamide]	340 nM	420 nM
Cc1c(F)cccc1[C@]1(C(=O)NO)CC[C@H](c2ccc3cn(C(F)F)nc3c2)C1 (relative stereo) [Example 66, (1S,3S*)-3-(2-(difluoromethyl)-2H-indazol-6-yl)-1-(3-fluoro-2-methylphenyl)-N-hydroxycyclopentanecarboxamide]	220 nM	190 nM
Cc1c(F)cccc1[C@]1(C(=O)NO)CC[C@H](c2ccn3ccnc3c2)C1 (relative stereo) [Example 58, (1S,3S*)-1-(3-fluoro-2-methylphenyl)-N-hydroxy-3-(imidazo[1,2-a]pyridin-7-yl)cyclopentanecarboxamide]	82 nM	300 nM
COc1ccccc1C1(C(=O)NO)CCCC1 [Example 23, N-Hydroxy-1-(2-methoxyphenyl)cyclopentanecarboxamide]	> 50000 nM	> 50000 nM
Cc1c(F)cccc1[C@]1(C(=O)NO)CC[C@H](c2ccc(F)cn2)C1 (relative stereo) [Example 11, (1S,3S*)-1-(3-fluoro-2-methylphenyl)-3-(5-fluoropyridin-2-yl)-N-hydroxycyclopentane carboxamide]	200 nM	1830 nM
Cc1c(F)cccc1[C@]1(C(=O)NO)CC[C@@H](c2cnc(OCCN3CCCC3)c(F)c2)C1 (relative stereo) [Example 48, (1 S,3R*)-1-(3-Fluoro-2-methylphenyl)-3-(5-fluoro-6-(2-(pyrrolidin-1-yl)ethoxy)pyridin-3-yl)-N-hydroxycyclopentanecarboxamide]	320 nM	750 nM
Cc1c(F)cccc1[C@]1(C(=O)NO)CC[C@H](c2ccc3c(c2)NCC(C)(C)O3)C1 (relative stereo) [Example 73]	270 nM	410 nM
Cc1c(F)cccc1[C@]1(C(=O)NO)CC[C@@H](Oc2ccccc2)C1 [Example 95, (1S,3R)-1-(3-fluoro-2-methylphenyl)-N-hydroxy-3-phenoxycyclopentanecarboxamide]	160 nM	1500 nM
Cc1c(F)cccc1[C@]1(C(=O)NO)CC[C@H](Oc2cncc(F)c2)C1 [Example 94, (1S,3S)-1-(3-fluoro-2-methylphenyl)-3-((5-fluoropyridin-3-yl)oxy)-N-hydroxycyclopentanecarboxamide]	160 nM	830 nM
Cc1c(F)cccc1[C@]1(C(=O)NO)CC[C@@H](c2ccnn2C)C1 (relative stereo) [Example 49, (1S,3R*)-1-(3-Fluoro-2-methylphenyl)-N-hydroxy-3-(1-methyl-1H-pyrazol-5-yl)cyclopentane carboxamide]	170 nM	400 nM
Cc1c(F)cccc1[C@]1(C(=O)NO)CC[C@@H](c2cncc(F)c2)C1 (stereo in doubt) [Example 10, (1S,3R*)-1-(3-fluoro-2-methyl-phenyl)-3-(5-fluoropyridin-3-yl)-N-hydroxycyclopentanecarboxamide]	140 nM	1390 nM
Cc1c(F)cccc1[C@]1(C(=O)NO)CC[C@H](Oc2ccccc2)C1 [Example 96, (1S,3S)-1-(3-fluoro-2-methylphenyl)-N-hydroxy-3-phenoxycyclopentanecarboxamide]	130 nM	260 nM
